Laboratory results as given in patent US6596900B2, “Fused bicyclic or tricyclic amino acids” (Pfizer Inc, priority 2001, dated 2003).

Key:
[1] = molecular target: T1, α2δ subunit derived from porcine brain tissue (Sus scrofa, UniProt A0A287BIN3); conditions: [3H]gabapentin radioligand; compounds of WO0128978 (prior application); cited from earlier work
T1 construct: the α2δ subunit derived from porcine brain tissue; from tissue; host or cells: porcine brain tissue

[2] = molecular target: T1, α2δ subunit derived from porcine brain tissue; assay: radioligand binding assay using [3H]gabapentin and the α2δ subunit; conditions: [3H]gabapentin radioligand binding assay described herein
From the text: wherein n is an integer of from 1 to 4, where there are stereocentres, each center may be independently R or S, preferred compounds being those of Formulae I-IV above in which n is an integer of from 2 to 4. The compounds are disclosed as being useful in treating a variety of disorders including epilepsy, faintness attacks, hypokinesia, cranial disorders, neurodegenerative disorders, depression, anxiety, panic, pain, neuropathological disorders, and sleep disorders. Certain of the compounds disclosed in that patent have high activity as measured in a radioligand binding assay using [^3H]gabapentin and the α2δ subunit derived from porcine brain tissue (Gee N. S., Brown J. P., Dissanayake V. U. K., Offord J., Thurlow R., Woodruff G. N., J. Biol. Chem., 1996;271:[…]). Results for some of the compounds are set out in the following table:
The biological activity of the compounds of the invention may be measured in a radioligand binding assay using [^3H]gabapentin and the α2δ subunit derived from porcine brain tissue (Gee N. S., Brown J. P., Dissanayake V. U. K., Offord J., Thurlow R., Woodruff G. N., ADVANCEADVANCE J. Biol. Chem., 1996;271:5879-[…]). Results may be expressed in terms of μM or nM α2δ binding affinity.

T1 sequence (A0A287BIN3 entry or part of it): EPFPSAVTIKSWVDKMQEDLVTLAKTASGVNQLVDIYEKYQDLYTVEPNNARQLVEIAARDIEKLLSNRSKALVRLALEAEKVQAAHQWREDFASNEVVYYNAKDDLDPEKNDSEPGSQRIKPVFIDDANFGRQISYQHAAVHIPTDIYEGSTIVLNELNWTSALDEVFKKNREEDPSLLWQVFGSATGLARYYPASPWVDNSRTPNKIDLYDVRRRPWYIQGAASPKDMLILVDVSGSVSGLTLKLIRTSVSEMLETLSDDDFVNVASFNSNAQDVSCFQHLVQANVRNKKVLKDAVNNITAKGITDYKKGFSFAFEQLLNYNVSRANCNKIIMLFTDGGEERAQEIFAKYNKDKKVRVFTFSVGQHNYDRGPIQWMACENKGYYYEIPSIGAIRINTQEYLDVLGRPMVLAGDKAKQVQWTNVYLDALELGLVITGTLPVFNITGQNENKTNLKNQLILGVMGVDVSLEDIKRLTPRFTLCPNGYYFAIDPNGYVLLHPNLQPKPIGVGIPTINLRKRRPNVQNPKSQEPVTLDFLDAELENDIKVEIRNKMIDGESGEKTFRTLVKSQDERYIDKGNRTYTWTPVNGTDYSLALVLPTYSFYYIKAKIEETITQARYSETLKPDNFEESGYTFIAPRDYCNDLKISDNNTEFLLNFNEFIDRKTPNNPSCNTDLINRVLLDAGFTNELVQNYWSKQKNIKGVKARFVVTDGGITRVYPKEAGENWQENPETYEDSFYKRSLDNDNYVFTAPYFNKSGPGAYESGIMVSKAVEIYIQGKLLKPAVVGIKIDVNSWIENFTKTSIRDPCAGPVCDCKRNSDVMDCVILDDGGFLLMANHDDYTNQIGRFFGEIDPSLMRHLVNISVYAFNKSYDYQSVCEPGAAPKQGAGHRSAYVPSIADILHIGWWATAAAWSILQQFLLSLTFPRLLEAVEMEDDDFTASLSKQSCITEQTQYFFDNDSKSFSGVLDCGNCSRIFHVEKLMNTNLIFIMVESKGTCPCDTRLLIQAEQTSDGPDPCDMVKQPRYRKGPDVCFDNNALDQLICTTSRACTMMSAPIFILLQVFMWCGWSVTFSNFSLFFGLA

Compound | α2δ binding affinity [1] [µM] | binding affinities [2] [nM] | melting point [°C]
NCC1(CC(=O)O)C[C@H]2CC[C@@H]2C1 (racemic) [(+/−)-(1α, 5β)(3-Aminomethyl-bicyclo[3.2.0]hept-3-yl)-acetic acid] | 2.86 | – | –
NC[C@]1(CC(=O)O)C[C@H]2CC[C@H]2C1 [(1α, 3α, 5α)(3-Aminomethyl-bicyclo[3.2.0]hept-3-yl)-acetic acid] | 0.038 | – | –
NC[C@@]1(CC(=O)O)C[C@H]2CC[C@H]2C1 [((1α, 3β, 5α)(3-Aminomethyl-bicyclo[3.2.0]hept-3-yl)-acetic acid] | 0.332 | – | –
Cl.NC[C@]1(CC(=O)O)C[C@H]2CCC[C@H]21 [Example 1, [(1R,5R,6S)-6-(Aminomethyl)bicyclo[3.2.0]hept-6-yl]acetic acid hydrochloride] | – | 46.8 | 198
Cl.NC[C@]1(CC(=O)O)C[C@H]2CCCC[C@H]21 [Example 4, [(1R,6R,7S)-7-(Aminomethyl)bicyclo[4.2.0]oct-7-yl]acetic acid hydrochloride] | – | 600 | –
